Experimental data from PubChem BioAssay (NCI).
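Grown in 96-well plates, cells were treated for 48 hours with each compound at five concentrations. Insufficient inhibition: endpoint recorded as highest concentration tested. TGI: concentration producing complete growth inhibition.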

Columns and labels:
Assay in all cases: NCI-60 cell line screen, 48 h
786-0 renal = tested on: 786-0 renal
A498 renal = tested on: A498 renal
A549 NSCLC = tested on: A549 NSCLC
ACHN renal = tested on: ACHN renal
CAKI-1 renal = tested on: CAKI-1 renal
CCRF-CEM leukemia = tested on: CCRF-CEM leukemia
COLO 205 colon = tested on: COLO 205 colon
DLD-1 colon = tested on: DLD-1 colon
DMS 114 small cell lung = tested on: DMS 114 small cell lung
DMS 273 small cell lung = tested on: DMS 273 small cell lung
EKVX NSCLC = tested on: EKVX NSCLC
HCC-2998 colon = tested on: HCC-2998 colon
HCT-116 colon = tested on: HCT-116 colon
HCT-15 colon = tested on: HCT-15 colon
HL-60(TB) leukemia = tested on: HL-60(TB) leukemia
HOP-18 NSCLC = tested on: HOP-18 NSCLC
HOP-62 NSCLC = tested on: HOP-62 NSCLC
HOP-92 NSCLC = tested on: HOP-92 NSCLC
HT29 colon = tested on: HT29 colon
IGROV1 ovarian = tested on: IGROV1 ovarian
K-562 leukemia = tested on: K-562 leukemia
KM12 colon = tested on: KM12 colon
KM20L2 colon = tested on: KM20L2 colon
LOX IMVI melanoma = tested on: LOX IMVI melanoma
LXFL 529 NSCLC = tested on: LXFL 529 NSCLC
M14 melanoma = tested on: M14 melanoma
M19-MEL melanoma = tested on: M19-MEL melanoma
MALME-3M melanoma = tested on: MALME-3M melanoma
MOLT-4 leukemia = tested on: MOLT-4 leukemia
NCI-H226 lung = tested on: NCI-H226 lung
NCI-H23 lung = tested on: NCI-H23 lung
NCI-H460 lung = tested on: NCI-H460 lung
NCI-H522 lung = tested on: NCI-H522 lung
OVCAR-3 ovarian = tested on: OVCAR-3 ovarian
OVCAR-4 ovarian = tested on: OVCAR-4 ovarian
OVCAR-5 ovarian = tested on: OVCAR-5 ovarian
OVCAR-8 ovarian = tested on: OVCAR-8 ovarian
RPMI-8226 leukemia = tested on: RPMI-8226 leukemia
RXF 393 renal = tested on: RXF 393 renal
SF-268 CNS = tested on: SF-268 CNS
SF-295 CNS = tested on: SF-295 CNS
SF-539 CNS = tested on: SF-539 CNS
SK-MEL-2 melanoma = tested on: SK-MEL-2 melanoma
SK-MEL-28 melanoma = tested on: SK-MEL-28 melanoma
SK-MEL-5 melanoma = tested on: SK-MEL-5 melanoma
SK-OV-3 ovarian = tested on: SK-OV-3 ovarian
SN12C renal = tested on: SN12C renal
SNB-19 CNS = tested on: SNB-19 CNS
SNB-75 CNS = tested on: SNB-75 CNS
SNB-78 CNS = tested on: SNB-78 CNS
SR leukemia = tested on: SR leukemia
SW-620 colon = tested on: SW-620 colon
TK-10 renal = tested on: TK-10 renal
U251 CNS = tested on: U251 CNS
UACC-257 melanoma = tested on: UACC-257 melanoma
UACC-62 melanoma = tested on: UACC-62 melanoma
UO-31 renal = tested on: UO-31 renal
XF 498 CNS = tested on: XF 498 CNS

For Cc1cc(C)c2c(c1)N[S@@](=O)S2, the TGI (786-0 renal) was 28.9 µM, the TGI (A498 renal) was over 100 µM and the TGI (A549 NSCLC) was over 100 µM. It also gave a TGI (ACHN renal) of 65.7 µM, a TGI (CAKI-1 renal) of 70.8 µM and a TGI (CCRF-CEM leukemia) of 61.3 µM. The TGI (COLO 205 colon) was 33.5 µM, the TGI (DLD-1 colon) was 59.2 µM and the TGI (DMS 114 small cell lung) was 38.7 µM. It also gave a TGI (DMS 273 small cell lung) of 38.2 µM, a TGI (EKVX NSCLC) of over 100 µM and a TGI (HCC-2998 colon) of over 100 µM. The TGI (HCT-116 colon) was 32.8 µM, the TGI (HCT-15 colon) was 33 µM and the TGI (HL-60(TB) leukemia) was 61.2 µM. It also gave a TGI (HOP-18 NSCLC) of 92.1 µM, a TGI (HOP-62 NSCLC) of over 100 µM and a TGI (HOP-92 NSCLC) of over 100 µM. The TGI (HT29 colon) was 41.1 µM, the TGI (IGROV1 ovarian) was over 100 µM and the TGI (K-562 leukemia) was 67.9 µM. The TGI (KM12 colon) was 69.6 µM, the TGI (KM20L2 colon) was over 100 µM and the TGI (LOX IMVI melanoma) was 30.7 µM. For the same compound, the TGI (LXFL 529 NSCLC) was 29.4 µM, the TGI (M14 melanoma) was 33.2 µM and the TGI (M19-MEL melanoma) was 46.7 µM. It also gave a TGI (MALME-3M melanoma) of 58.1 µM, a TGI (MOLT-4 leukemia) of 65.6 µM and a TGI (NCI-H226 lung) of 38.5 µM. It also gave a TGI (NCI-H23 lung) of over 100 µM, a TGI (NCI-H460 lung) of 46.5 µM and a TGI (NCI-H522 lung) of 31.9 µM. The TGI (OVCAR-3 ovarian) was 39 µM, the TGI (OVCAR-4 ovarian) was 61.3 µM and the TGI (OVCAR-5 ovarian) was 81.9 µM. The TGI (OVCAR-8 ovarian) was 33.2 µM, the TGI (RPMI-8226 leukemia) was 88.5 µM and the TGI (RXF 393 renal) was 26.3 µM. It also gave a TGI (SF-268 CNS) of 34.5 µM, a TGI (SF-295 CNS) of over 100 µM and a TGI (SF-539 CNS) of 50.5 µM. The TGI (SK-MEL-2 melanoma) was 82.9 µM, the TGI (SK-MEL-28 melanoma) was 95.1 µM and the TGI (SK-MEL-5 melanoma) was 80.6 µM. The TGI (SK-OV-3 ovarian) was 90.6 µM, the TGI (SN12C renal) was 36.7 µM and the TGI (SNB-19 CNS) was over 100 µM. The TGI (SNB-75 CNS) was over 100 µM, the TGI (SNB-78 CNS) was over 100 µM and the TGI (SR leukemia) was 83.7 µM. It also gave a TGI (SW-620 colon) of 16.5 µM, a TGI (TK-10 renal) of 80.3 µM and a TGI (U251 CNS) of 31.1 µM. The TGI (UACC-257 melanoma) was 35.7 µM, the TGI (UACC-62 melanoma) was 37.9 µM and the TGI (UO-31 renal) was 39.4 µM. The TGI (XF 498 CNS) was 50.1 µM.

CN(C)C(=O)NC(=S)N(C)C showed a TGI (786-0 renal) of over 100 µM, a TGI (A498 renal) of over 100 µM and a TGI (A549 NSCLC) of over 100 µM. The TGI (ACHN renal) was over 100 µM, the TGI (CAKI-1 renal) was over 100 µM and the TGI (CCRF-CEM leukemia) was over 100 µM. The TGI (DLD-1 colon) was over 100 µM, the TGI (DMS 114 small cell lung) was over 100 µM and the TGI (DMS 273 small cell lung) was over 100 µM. The TGI (EKVX NSCLC) was over 100 µM, the TGI (HCC-2998 colon) was over 100 µM and the TGI (HCT-116 colon) was over 100 µM. It also gave a TGI (HCT-15 colon) of over 100 µM, a TGI (HL-60(TB) leukemia) of over 100 µM and a TGI (HOP-18 NSCLC) of over 100 µM. It also gave a TGI (HOP-62 NSCLC) of 1.52 µM, a TGI (HOP-92 NSCLC) of over 100 µM and a TGI (HT29 colon) of over 100 µM. It also gave a TGI (IGROV1 ovarian) of over 100 µM, a TGI (K-562 leukemia) of over 100 µM and a TGI (KM12 colon) of over 100 µM. It also gave a TGI (KM20L2 colon) of over 100 µM, a TGI (LXFL 529 NSCLC) of over 100 µM and a TGI (M14 melanoma) of over 100 µM. It also gave a TGI (M19-MEL melanoma) of over 100 µM, a TGI (MALME-3M melanoma) of over 100 µM and a TGI (MOLT-4 leukemia) of over 100 µM. The TGI (NCI-H226 lung) was over 100 µM, the TGI (NCI-H23 lung) was over 100 µM and the TGI (NCI-H460 lung) was over 100 µM. For the same compound, the TGI (NCI-H522 lung) was over 100 µM, the TGI (OVCAR-4 ovarian) was over 100 µM and the TGI (OVCAR-5 ovarian) was over 100 µM. It also gave a TGI (OVCAR-8 ovarian) of over 100 µM, a TGI (RPMI-8226 leukemia) of over 100 µM and a TGI (RXF 393 renal) of over 100 µM. It also gave a TGI (SF-268 CNS) of over 100 µM, a TGI (SF-295 CNS) of over 100 µM and a TGI (SF-539 CNS) of over 100 µM. For the same compound, the TGI (SK-MEL-2 melanoma) was over 100 µM, the TGI (SK-MEL-28 melanoma) was over 100 µM and the TGI (SK-MEL-5 melanoma) was over 100 µM. The TGI (SK-OV-3 ovarian) was over 100 µM, the TGI (SN12C renal) was over 100 µM and the TGI (SNB-19 CNS) was over 100 µM. The TGI (SNB-75 CNS) was over 100 µM, the TGI (SNB-78 CNS) was over 100 µM and the TGI (SR leukemia) was over 100 µM. It also gave a TGI (SW-620 colon) of over 100 µM, a TGI (TK-10 renal) of over 100 µM and a TGI (U251 CNS) of 14 µM. It also gave a TGI (UACC-257 melanoma) of over 100 µM, a TGI (UACC-62 melanoma) of over 100 µM and a TGI (UO-31 renal) of over 100 µM. For the same compound, the TGI (XF 498 CNS) was over 100 µM.
